Laboratory results: patent US20220348592A1, “FUSED HETEROCYCLIC DERIVATIVES” (Janssen Sciences Ireland Unlimited Company, priority 2019, published 2022)

Experiments:
HBV [1] = assay: HBV replication inhibition assay (BDNA assay) in HepG2.2.15 cells; assay type: cell-based; settings: Hepatitis B virus, HepG2.2.15, 144 h, 6 days treatment, encapsidated HBV DNA in supernatant, BDNA QuantiGene assay
Experimental: HBV replication inhibition by the disclosed compounds were determined in cells infected or transfected with HBV or cells with stably integrated HBV, such as HepG2.2.15 cells (Sells et al. 1987). In this example, HepG2.2.15 cells were maintained in cell culture medium containing 10% fetal bovine serum (FBS), Geneticin, L-glutamine, penicillin and streptomycin. HepG2.2.15 cells were seeded in 96-well plates at a density of 40,000 cells/well and were treated with serially diluted compounds at a final DMSO concentration of 0.5% either alone or in combination by adding drugs in a checker box format. Cells were incubated with compounds for three days, after which medium was removed and fresh medium containing compounds was added to cells and incubated for another three days. At day 6, supernatant was removed and treated with DNase at 37° C. for 60 minutes, followed by enzyme inactivation at 75° C. for 15 minutes. […] HBV DNA was denatured by addition of 0.2 M NaOH and detected using a branched DNA (BDNA) QuantiGene assay kit according to manufacturer recommendation (Affymetrix). HBV DNA levels were also quantified using qPCR, based on amplification of encapsidated HBV DNA extraction with QuickExtraction Solution (Epicentre Biotechnologies) and amplification of HBV DNA using HBV specific PCR probes that can hybridize to HBV DNA and a fluorescently labeled probe for quantitation. In addition, cell viability of HepG2.2.15 cells incubated with test compounds alone or in combination was determined by using CellTitre-Glo reagent according to the manufacturer protocol (Promega). The mean background signal from wells containing only culture medium was subtracted from all other samples, and percent inhibition at each compound concentration was calculated by normalizing to signals from HepG2.2.15 cells treated with 0.5% DMSO using equation E1. […]
where DMSOave is the mean signal calculated from the wells that were treated with DMSO control (0% inhibition control) and Xi is the signal measured from the individual wells. […]

HepG2.117 cells = assay: Cytotoxicity in HepG2.117 cells, ATPlite Luminescence Assay; assay type: cell-based, human; settings: incubated for 3 days, mean value, read-out: TOX-HepG2.117 CC50 (μM, mean value)
Experimental: (§1) Cytotoxicity of the compounds was tested using HepG2 or HepG2.117 cells, incubated for 3 days in the presence of compounds. The viability of the cells was assessed using the PERKIN ELMER ATPlite Luminescence Assay System.”

HBV [2] = assay: Anti-HBV activity: intracellular HBV DNA by real-time PCR in HepG2.117 cell line; assay type: cell-based, Hepatitis B virus; settings: HepG2.117 cells, 3 days of treatment, intracellular HBV DNA by real-time PCR, mean value, read-out: HBV-AVE-HepG2.117 EC50 (μM, mean value)
Procedure, shortened: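 HepG2.117 cells, a Tet-off inducible HBV-producing line, induced to replicate HBV and then treated with serially diluted compound. After 3 days, intracellular HBV DNA quantified by real-time PCR with HBV-specific primers and probe.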

[3] = Cytotoxicity in HepG2.117 cells, ATPlite Luminescence Assay; assay type: cell-based, human; settings: human, incubated for 3 days, mean value, read-out: TOX-HepG2.117 CC50 (μM, mean value)
Experimental: as §1

Compound | CC50 at 3 days [3] [µM] | EC50 (HBV [2]; Hepatitis B virus, 72 h) [µM] | further results
C[C@@H]1Cc2nn3c(c2CN1C(=O)Nc1ccc(F)c(C#N)c1)C(=O)N(C)C[C@H](c1cc[nH]n1)C3 (relative stereo) [Example 7a] | – | – | EC50 (HBV [1]): 37 nM
C[C@@H]1Cc2nn3c(c2CN1C(=O)Nc1ccc(F)c(C#N)c1)C(=O)N(C)CC(c1cc[nH]n1)C3 (single isomer, unassigned) [Example 9a, (3R,8R*)—N-(3-Cyano-4-fluorophenyl)-3,10-dimethyl-11-oxo-8-(1H-pyrazol-3-yl)-3,4,8,9,10,11-hexahydro-1H-pyrido[4′,3′:3,4]pyrazolo[1,5-a][1,4]diazepine-2(7H)-carboxamide] | – | – | EC50 (HBV [1]): 260 nM
C[C@@H]1Cc2nn3c(c2CN1C(=O)c1ccc(Cl)c(Cl)c1)C(=O)N(C)OC(CF)C3 (stereo in doubt) [Compound 47, (4*R,9R)-10-(3,4-Dichlorobenzoyl)-4-(fluoromethyl)-2,9-dimethyl-4,5,8,9,10,11-hexahydro-pyrido[4′,3′:3,4]pyrazolo[5,1-d][1,2,5]oxadiazepin-1(2H)-one] | – | – | CC50 (HepG2.117 cells): 3.63 µM; EC50 (HBV [2]): 0.249 µM
CC(C)N1CCn2nc3c(c2C1=O)CN(C(=O)c1ccc(Cl)c(Cl)c1)CC3 [Compound 2, 2-(3,4-Dichlorobenzoyl)-9-(propan-2-yl)-1,2,3,4,8,9-hexahydropyrido[4′,3′:3,4]pyrazolo[1,5-a]-pyrazin-10(7H)-one] | > 50 | 1.15 | melting point: 190 °C
O=C1NCCCn2nc3c(c21)CN(C(=O)c1ccc(Cl)c(Cl)c1)CC3 [Compound 33, 2-(3,4-Dichlorobenzoyl)-1,2,3,4,7,8,9,10-octahydro-11H-pyrido[4′,3′:3,4]pyrazolo[1,5-a][1,4]-diazepin-11-one] | > 50 | 9.61 | melting point: 237 °C
CN1CC(c2ccn(C)n2)Cn2nc3c(c2C1=O)CN(C(=O)Nc1ccc(F)c(C#N)c1)CC3 (centres unmarked) [Example 5a, N-(3-Cyano-4-fluorophenyl)-10-methyl-8-(1-methyl-1H-pyrazol-3-yl)-11-oxo-3,4,8,9,10,11-hexahydro-1H-pyrido[4′,3′:3,4]pyrazolo[1,5-a][1,4]diazepine-2(7H)-carboxamide] | – | – | EC50 (HBV [1]): 160 nM
CCc1nnc(C(C)N2CCn3nc4c(c3C2=O)CN(C(=O)c2ccc(Cl)c(Cl)c2)[C@H](C)C4)o1 (some centres unmarked) [Example C220] | > 50 | 0.077 | –
Cc1cnc(C(C)N2CCn3nc4c(c3C2=O)CN(C(=O)c2ccc(Cl)c(Cl)c2)[C@H](C)C4)o1 (some centres unmarked) [Example C221] | > 50 | 0.022 | –
CCc1noc(C(C)N2CCn3nc4c(c3C2=O)CN(C(=O)c2ccc(Cl)c(Cl)c2)[C@H](C)C4)n1 (some centres unmarked) [Example C222] | > 50 | 0.124 | –
Cc1noc(C(C)N2CCn3nc4c(c3C2=O)CN(C(=O)c2ccc(Cl)c(Cl)c2)[C@H](C)C4)n1 (some centres unmarked) [Example C223] | > 50 | 0.219 | –
Cc1nnc(C(C)N2CCn3nc4c(c3C2=O)CN(C(=O)c2ccc(Cl)c(Cl)c2)[C@H](C)C4)o1 (some centres unmarked) [Example C224] | > 50 | 0.326 | –
Cc1nc(C(C)N2CCn3nc4c(c3C2=O)CN(C(=O)c2ccc(Cl)c(Cl)c2)[C@H](C)C4)no1 (some centres unmarked) [Example C225] | > 50 | 0.263 | –
COc1ccccc1C(C)N1CCn2nc3c(c2C1=O)CN(C(=O)c1ccc(Cl)c(Cl)c1)[C@H](C)C3 (some centres unmarked) [Example C227] | 37.3 | 0.129 | –
C[C@@H]1Cc2nn3c(c2CN1C(=O)c1ccc(Cl)c(Cl)c1)C(=O)N(Cc1cc(F)ccc1F)CC3 [Example C228] | 37.5 | 0.062 | –
Cc1ocnc1CN1CCn2nc3c(c2C1=O)CN(C(=O)c1ccc(Cl)c(Cl)c1)[C@H](C)C3 [Example C229] | > 25 | 0.438 | –
C[C@@H]1Cc2nn3c(c2CN1C(=O)c1ccc(Cl)c(Cl)c1)C(=O)N(Cc1cc(F)cc(C#N)c1)CC3 [Example C230] | > 12.5 | 0.045 | –
C[C@@H]1Cc2nn3c(c2CN1C(=O)c1ccc(Cl)c(Cl)c1)C(=O)N(Cc1cccc(C#N)c1F)CC3 [Example C231] | > 50 | 0.09 | –
Cc1ccc(CN2CCn3nc4c(c3C2=O)CN(C(=O)c2ccc(Cl)c(Cl)c2)[C@H](C)C4)c(C)n1 [Example C232] | 24.4 | 0.066 | –

Compound | CC50 at 3 days [3] [µM] | EC50 (HBV [2]; Hepatitis B virus, 72 h) [µM] | further results
C[C@@H]1Cc2nn3c(c2CN1C(=O)c1ccc(Cl)c(Cl)c1)C(=O)N(Cc1cccnc1C(F)(F)F)CC3 [Example C233] | 29.8 | 0.423 | –
Cc1nc(C)c(CN2CCn3nc4c(c3C2=O)CN(C(=O)c2ccc(Cl)c(Cl)c2)[C@H](C)C4)s1 [Example C234] | > 50 | 0.036 | –
C[C@@H]1Cc2nn3c(c2CN1C(=O)c1ccc(Cl)c(Cl)c1)C(=O)N(Cc1nc(C2CC2)nn1C)CC3 [Example C235] | > 50 | 1.93 | –
Cc1conc1CN1CCn2nc3c(c2C1=O)CN(C(=O)c1ccc(Cl)c(Cl)c1)[C@H](C)C3 [Example C236] | > 51 | 0.325 | –
C[C@@H]1Cc2nn3c(c2CN1C(=O)c1ccc(Cl)c(Cl)c1)C(=O)N(Cc1ccc(C(F)(F)F)cn1)CC3 [Example C237] | 18.8 | 0.107 | –
C[C@@H]1Cc2nn3c(c2CN1C(=O)c1ccc(Cl)c(Cl)c1)C(=O)N(Cc1ccc(C#N)c(F)c1)CC3 [Example C238] | 39.9 | 0.029 | –
C[C@@H]1Cc2nn3c(c2CN1C(=O)c1ccc(Cl)c(Cl)c1)C(=O)N(Cc1cn(C2CC2)nn1)CC3 [Example C239] | > 50 | 0.154 | –
C[C@@H]1Cc2nn3c(c2CN1C(=O)c1ccc(Cl)c(Cl)c1)C(=O)N(Cc1cnc(Cl)c(F)c1)CC3 [Example C240] | 35.2 | 0.017 | –
Cc1nocc1CN1CCn2nc3c(c2C1=O)CN(C(=O)c1ccc(Cl)c(Cl)c1)[C@H](C)C3 [Example C241] | > 50 | 0.19 | –
C[C@@H]1Cc2nn3c(c2CN1C(=O)c1ccc(Cl)c(Cl)c1)C(=O)N(Cc1nccn1C)CC3 [Example C242] | > 50 | 0.589 | –
CCOc1cc(CN2CCn3nc4c(c3C2=O)CN(C(=O)c2ccc(Cl)c(Cl)c2)[C@H](C)C4)nc2nc(C(F)(F)F)nn12 [Example C243] | > 50 | > 2.5 | –
CC(c1ccccc1F)N1CCn2nc3c(c2C1=O)CN(C(=O)c1ccc(Cl)c(Cl)c1)[C@H](C)C3 (some centres unmarked) [Example C244] | 24.5 | 0.048 | –
Cc1nnc(C(C)N2CCn3nc4c(c3C2=O)CN(C(=O)c2ccc(Cl)c(Cl)c2)[C@H](C)C4)s1 (some centres unmarked) [Example C245] | > 50 | 0.072 | –
CC(c1cnccn1)N1CCn2nc3c(c2C1=O)CN(C(=O)c1ccc(Cl)c(Cl)c1)[C@H](C)C3 (some centres unmarked) [Example C246] | > 50 | 0.171 | –
CC(c1nnnn1C)N1CCn2nc3c(c2C1=O)CN(C(=O)c1ccc(Cl)c(Cl)c1)[C@H](C)C3 (some centres unmarked) [Example C247] | > 50 | > 2.5 | –
CC(c1c(F)cccc1F)N1CCn2nc3c(c2C1=O)CN(C(=O)c1ccc(Cl)c(Cl)c1)[C@H](C)C3 (some centres unmarked) [Example C248] | 25 | 0.013 | –
CC(c1nncn1C)N1CCn2nc3c(c2C1=O)CN(C(=O)c1ccc(Cl)c(Cl)c1)[C@H](C)C3 (some centres unmarked) [Example C249] | > 50 | > 2.5 | –
CC(c1ccncc1)N1CCn2nc3c(c2C1=O)CN(C(=O)c1ccc(Cl)c(Cl)c1)[C@H](C)C3 (some centres unmarked) [Example C250] | > 12.5 | 0.033 | –
